Results from patent publication US10961163B2, “Compositions and methods useful for enhancing the microbial conversion of nitrate into ammonium” (The Regents of the University of California, priority 2016, dated 2021).

system: microbial enrichment cultures; experiment: Inhibitory potency (IC50) of inorganic compounds against growth and ammonium production, microbial enrichment with yeast extract; format: cell-based; conditions: not given

| Compound | NH4^+ IC50/growth IC50 ratio |
| --- | --- |
| [Cl-].[Cl-].[Zn+2] [Zinc chloride] | 0.1037 |
| CC(=O)c1ccc(O)cc1 [4-Hydroxyacetophenone] | 1.3700 |
| [Cl-].[Cl-].[Sr+2] [Strontium chloride] | 3.3568 |
| [Cl][Pb][Cl] [Lead(II)chloride] | 0.0174 |
| Cl.N [Ammonium chloride] | 1.0157 |
| O=NO [Sodium nitrite] | 0.3023 |
| [Cl-].[Rb+] [rubidium chloride] | 1.4483 |
| [Ce+3].[Cl-].[Cl-].[Cl-] [Cerium(III) chloride] | 0.0189 |
| O=S([O-])[O-].[Na+].[Na+] [sodium sulfite] | 2.4699 |

same assay, conditions: microbial enrichment with complex carbon source (yeast extract), serial dilutions of inorganic compound; higher ratio favors ammonium production

| Compound | NH4^+ IC50/growth IC50 ratio |
| --- | --- |
| [Cl][Fe]([Cl])[Cl] [Ferric chloride] | 0.2642 |
| O=C(O)c1cc(O)c(O)c(O)c1 [Gallic Acid] | 4.9374 |
| Aluminum chloride hydrate | 0.0961 |

system: microbial enrichment cultures; experiment: Ammonium production normalized by growth (NH4+/OD ratio) of microbial enrichment cultivated on individual carbon sources; format: cell-based; conditions: average of 8 independent cultures amended with varying concentrations of the carbon source; ammonium by colorimetric (Bertholet) assay, growth by OD 600

| Compound | Ammonium/OD ratio |
| --- | --- |
| O=C(O)CO [Glycolic Acid] | 1.01 |
| C[C@H](O)[C@@H](O)[C@@H](O)[C@H](O)C=O [L-Fucose] | 1.06 |
| O=C([O-])/C=C/C(=O)[O-].[Na+].[Na+] [Sodium Fumarate dibasic] | 0.81 |
| Cl.Nc1ncnc2nc[nH]c12.O [Adenine hydrochloride hydrate] | 0.93 |
| Cl.N[C@H]1C(O)O[C@H](CO)[C@@H](O)[C@@H]1O (stereo partly drawn) [D-Glucosamine Hydrochloride] | 1.16 |
| CC(O)C(=O)[O-].[Na+] (racemic) [Sodium D,L-Lactate] | 0.91 |
| N[C@@H](CO)C(=O)O [L-Serine] | 1.20 |
| OC[C@H]1O[C@@H](O[C@H]2[C@H](O)[C@@H](O)[C@H](O)O[C@@H]2CO)[C@H](O)[C@@H](O)[C@H]1O [Beta-Lactose] | 0.99 |
| O=C[C@H](O)[C@@H](O)[C@H](O)[C@H](O)CO [D-Glucose] | 1.33 |
| O=C(CO)[C@@H](O)[C@H](O)[C@H](O)CO [D-Fructose] | 1.42 |
| OC[C@@H](O)[C@@H](O)[C@H](O)[C@@H](O)CO [D-Sorbitol] | 0.82 |
| CC(C)[C@H](N)C(=O)O [L-Valine] | 0.94 |
| Nc1cc[nH]c(=O)n1 [Cytosine] | 1.37 |
| O=C[C@H](O)[C@@H](O)[C@H](O)[C@H](O)C(=O)O [D-Glucuronic Acid] | 1.02 |
| NCC(=O)O [Glycine] | 0.94 |
| NC(=O)[C@@H](O)[C@@H](O)[C@H](O)[C@@H](O)C=O [Glucuronamide] | 1.38 |
| O=C(O)c1ccc(O)cc1 [4-Hydroxybenzoic Acid] | 1.31 |
| C[C@H](N)C(=O)O [L-Alanine] | 1.45 |
| C[N+](C)(C)CC(O)CC(=O)[O-].Cl (centres unmarked) [Carnitine Hydrochloride] | 1.45 |
| CC(=O)C(=O)[O-].[Na+] [Sodium pyruvate] | 0.96 |
| OC[C@H]1O[C@@H](n2cnc3c(O)ncnc32)[C@H](O)[C@@H]1O [Inosine] | 1.44 |
| O=C(CO)[C@@H](O)[C@H](O)[C@@H](O)C(=O)[O-].[K+] [5-Keto-D-Gluconic Acid potassium salt] | 1.12 |
| N[C@@H](Cc1ccccc1)C(=O)O [L-Phenylalanine] | 1.40 |
| O=C1NC(=O)C(=O)N1 [Parabanic Acid] | 1.12 |
| N[C@H](CO)C(=O)O [D-Serine] | 1.81 |
| NC(=O)NCCC[C@H](N)C(=O)O [L-Citrulline] | 1.46 |
| C[C@H](O)C(=O)[O-].[Na+] [Sodium L-Lactate] | 1.35 |
| Cc1c[nH]c(=O)[nH]c1=O [Thymine] | 1.13 |
| C[C@@H](O)C(=O)[O-].[Na+] [Sodium D-Lactate] | 1.16 |
